Target: T1, PDK1 (Homo sapiens, UniProt O15530)
T1 construct: purchased Thermo Fisher Scientific (Life Technologies) SelectScreen
Assay: SelectScreen Z'LYTE
Assay type: biochemical
Outline: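 SelectScreen broad panel; activity (Z'LYTE, Adapta) plus binding formats. ATP: Km app for CSF1R Z'LYTE; 10 for CAMK1 Adapta. Readout = % per kinase.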

T1 sequence (O15530 whole entry): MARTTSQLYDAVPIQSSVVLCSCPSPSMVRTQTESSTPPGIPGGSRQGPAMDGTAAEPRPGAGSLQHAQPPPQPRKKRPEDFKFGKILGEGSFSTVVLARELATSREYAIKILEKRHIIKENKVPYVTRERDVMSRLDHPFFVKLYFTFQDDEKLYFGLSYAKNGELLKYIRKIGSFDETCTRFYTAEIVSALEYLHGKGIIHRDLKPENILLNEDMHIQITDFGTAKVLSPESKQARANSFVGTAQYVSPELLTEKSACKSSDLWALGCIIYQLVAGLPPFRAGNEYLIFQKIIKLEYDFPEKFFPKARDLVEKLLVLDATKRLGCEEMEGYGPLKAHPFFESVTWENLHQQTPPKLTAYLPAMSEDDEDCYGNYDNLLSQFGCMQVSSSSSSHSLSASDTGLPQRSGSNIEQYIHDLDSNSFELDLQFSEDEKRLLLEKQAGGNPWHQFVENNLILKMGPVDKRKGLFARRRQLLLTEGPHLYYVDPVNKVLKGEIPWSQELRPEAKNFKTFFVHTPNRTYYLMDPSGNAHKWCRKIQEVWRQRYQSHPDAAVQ

## CN(C(=O)CN1CCOCC1)c1ccc2sc3c(-c4cccc5c(=O)cc(N6CC7CCC(C6)O7)oc45)cccc3c2c1 [NU5455]
  inhibition at 1 µM: -7.3%

Reference: publication PMC6934184, “Selective DNA-PKcs inhibition extends the therapeutic index of localized radiotherapy and chemotherapy” (The Journal of Clinical Investigation, 2019)
